Reference: patent US10238688B2, “Combination therapies for bladder cancer” (GENEDIA BIOTECH CO. LTD., priority 2015, dated 2019)

Assays:
J-82 = assay: MTT cell survival / IC50, J-82 cells; format: cell-based, human; settings: J82; Table S3; ng/ml: Pi 40, Pa 160, EH 250, Ci 1500, Mi 200; 1=Ci/Mi, 2=EH/Ci/Mi, 3=Pa/Ci/Mi, 4=Pi/Ci/Mi
Method: The clinical grade of the chemotherapeutics (NCI Dictionary of Cancer Terms) was provided by the First Affiliated Hospital of Harbin Medical University: Pirarubicin (Pi, Wanle, Shenzhen), Paclitaxel (Pa, Taiji, Sichuan), Adriamycin (Ad, Pfizer, Jiangsu), Epirubicin Hydrochloride (EH, Haizheng, Zhejiang), Hydroxycamptothecin (Hy, Lishizhen, Hubei), Cisplatin (Ci, Haosen, Jiangsu), Gemcitabine (Ge, Haosen, Jiangsu) and Mitomycin (Mi, Haizheng, Zhejiang). The drug induced cell death was determined by a thiazolyl […] (MTT, 490 nm reading) based cell proliferation assay in the cultured cells following treatment by various concentrations of drugs for 72 hours. The relative chemoresistance to each drug of all cell lines was calculated with the lowest IC50 as a reference. The overall chemoresistance of each cell line was described as “chemoresistance index”, the numerator of the total relative IC50 to all the drugs over the number of drugs to rank the overall resistance state of each cell line to the six chemotherapeutics collectively.
The relative IC50 (fold) of each drug of all nine cell lines was normalized to the lowest IC50 in the most sensitive cell line (FIG. 2G), to describe the single drug resistance of cell lines. The overall chemoresistance of each cell line, a “chemoresistance index” (the numerator of the total relative IC50 over the number of drugs) (FIG. 2G) were calculated to rank the overall resistance state of each cell line to this six chemotherapeutics.
Twenty six-drug combinations at the indicated doses were initially generated through a random number generator (using MATLAB MathWorks©, Natick, Mass., U.S.) (The upper half of Table 1). The cell survival (% over the not drug control) of treated cells was determined and then used for a calculation of the average cumulative cell survival (%, ACS: the sum of cell survival (%) per combination divided by the number of cell lines tested). ACS<30% was used to separate the effective from the not-effective combinations.

[1] = tested on: DNA Damage response pathway; assay: Cignal Finder dual-luciferase pathway reporter, DNA Damage response (5637, Biu87, UM-UC-3, H-bc, SV-HUC-1); format: cell-based, human; design: key to Relative activity, DNA Damage reporter: firefly/renilla ratio, background (negative control) subtracted; settings: for Relative activity, DNA Damage reporter: luc/Renluc relative to negative control reporter, single drug at 4 folds vs EH/Ci/Mi combination
Method: (§1) The pathway analysis was performed with Qiagen's Cignal Finder Pathway Reporter Array systems according to the manufacturer's instructions. The pathway-focused dual-luciferase reporter construct was a mixture of an inducible transcription factor responsive firefly luciferase reporter and constitutively expressing renilla construct. Transcriptional response element (TRE) sequence response elements to each specific transcriptional factor triggered by the different signaling pathways are positioned before the TATA box of firefly luciferase reporter gene. The extent of activity of the reporter reflects the level of activity of the particular signaling pathway. CMV controlled renilla expression vector is co-transfected into the cell as an internal control. Non-inducible reporter construct that lacks the transcriptional factor binding sequence and could not be induced by any transcription factors is used as a negative control. Cells transfected with CMV directed firefly luciferase reporter gene serve as a positive control. Briefly, cells seeded in 6-well plates were transfected with Cignal finder pathway arrays according to the manufacturer's instructions (Qiagen). Then cells were seeded onto 96-well plates. […] After 6 h of incubation with the different drugs at 37° C., cells were lysed and a dual luciferase assay (for firefly and renilla luciferase) was performed using a PromegaGloMax 20/20 illuminometer. The firefly luciferase activities were normalized over the renilla luciferase activities after background activity determined by luciferase activities of negative controls was subtracted. A triple test of cell survival under these drug doses was also performed by MTT assay following 18 h incubation at 37° C. […]

Notch pathway = assay: Cignal Finder dual-luciferase pathway reporter, Notch; format: cell-based, human; design: key to Relative activity, Notch reporter: firefly/renilla ratio, background (negative control) subtracted; settings: for Relative activity, Notch reporter: luc/Renluc relative to negative control reporter, single drug at 4 folds vs EH/Ci/Mi combination;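 as to digitalized pathway activity, Notch: code −1 means repressed below 0.5-fold of 5637 cells or no-drug control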
Method: The pathway analysis was performed with Qiagen's Cignal Finder Pathway Reporter Array systems according to the manufacturer's instructions. The pathway-focused dual-luciferase reporter construct was a mixture of an inducible transcription factor responsive firefly luciferase reporter and constitutively expressing renilla construct. Transcriptional response element (TRE) sequence response elements to each specific transcriptional factor triggered by the different signaling pathways are positioned before the TATA box of firefly luciferase reporter gene. The extent of activity of the reporter reflects the level of activity of the particular signaling pathway. CMV controlled renilla expression vector is co-transfected into the cell as an internal control. Non-inducible reporter construct that lacks the transcriptional factor binding sequence and could not be induced by any transcription factors is used as a negative control. Cells transfected with CMV directed firefly luciferase reporter gene serve as a positive control. Briefly, cells seeded in 6-well plates were transfected with Cignal finder pathway arrays according to the manufacturer's instructions (Qiagen). Then cells were seeded onto 96-well plates. Ci (6000 ng/mL), Mi (800 ng/mL), or EH (1000 ng/mL) and Ci/Mi/EH combination (Ci, 1500 ng/mL, Mi, 800 ng/mL and EH, 1000 ng/m L) were then added to the cells 24 h post-transfection. After 6 h of incubation with the different drugs at 37° C., cells were lysed and a dual luciferase assay (for firefly and renilla luciferase) was performed using a PromegaGloMax 20/20 illuminometer. The firefly luciferase activities were normalized over the renilla luciferase activities after background activity determined by luciferase activities of negative controls was subtracted. A triple test of cell survival under these drug doses was also performed by MTT assay following 18 h incubation at 37° C. […]

Myc/Max pathway = assay: Cignal Finder dual-luciferase pathway reporter, Myc/Max; format: cell-based, human; settings: for Relative activity, Myc/Max reporter: luc/Renluc relative to negative control reporter, single drug at 4 folds vs EH/Ci/Mi combination
Method: as §1

[2] = tested on: nine cancer-associated signaling pathways; assay: Pearson correlation of collective drug-triggered pathway activities (single drug versus EH/Ci/Mi regimen)
Source text: To calculate the correlation coefficients between the two cell lines, the R language statistics function “cor{stats}” was used to generate the correlation matrix between multiple cell lines.
This example then determined the correlation coefficient between the overall activity of these nine pathways and the chemoresistance state of these five cell lines. […] The overall state of activity of these pathways in each cell line are summarized (FIG. 4E) and the correlation coefficient of each pair of cell lines is calculated (FIG. 4F).

COc1cccc2c1C(=O)c1c(O)c3c(c(O)c1C2=O)C[C@@](O)(C(=O)CO)C[C@@H]3[C@@H]1C[C@H](N)[C@@H](O)[C@H](C)O1 [EH, (8R,10S)-10-((2S,4S,5R,6S)-4-amino-5-hydroxy-6-methyltetrahydro-2H-pyran-2-yl)-6,8,11-trihydroxy-8-(2-hydroxyacetyl)-1-methoxy-7,8,9,10-tetrahydrotetracene-5,12-dione]
Cell survival (%) (J-82): 45.03% | relative drug trigged pathway activity over the no-drug level, DNA Damage ([1]; 5637 cells): 3.42 fold | Relative activity, DNA Damage reporter ([1]; 5637 cells): 0.75 | digitalized pathway activity, DNA Damage ([1]; Biu87 cells): 0 (null (0) if neither of the above holds) | relative drug trigged pathway activity over the no-drug level, DNA Damage ([1]; Biu87 cells): 1.04 fold | Relative activity, DNA Damage reporter ([1]; Biu87 cells): 1.58 | relative drug trigged pathway activity over the no-drug level, DNA Damage ([1]; H-bc cells): 6.13 fold | Relative activity, DNA Damage reporter ([1]; H-bc cells): 3.99 | relative drug trigged pathway activity over the no-drug level, DNA Damage ([1]; SV-HUC-1 cells): 2.5 fold | Relative activity, DNA Damage reporter ([1]; SV-HUC-1 cells): 6.00 | Relative activity, DNA Damage reporter ([1]; UM-UC-3 cells): 5.96 | relative drug trigged pathway activity over the no-drug level, DNA Damage ([1]; Um-Uc-3 cells): 1.71 fold | relative drug trigged pathway activity over the no-drug level, Notch (Notch pathway; 5637 cells): 1.92 fold | Relative activity, Notch reporter (Notch pathway; 5637 cells): 1.95 | digitalized pathway activity, Notch (Notch pathway; Biu87 cells): 0 (null (0) if neither of the above holds) | relative drug trigged pathway activity over the no-drug level, Notch (Notch pathway; Biu87 cells): 1.34 fold | Relative activity, Notch reporter (Notch pathway; Biu87 cells): 5.94 | relative drug trigged pathway activity over the no-drug level, Notch (Notch pathway; H-bc cells): 1.6 fold | Relative activity, Notch reporter (Notch pathway; H-bc cells): 2.20 | digitalized pathway activity, Notch (Notch pathway; SV-HUC-1 cells): 0 (null (0) if neither of the above holds) | relative drug trigged pathway activity over the no-drug level, Notch (Notch pathway; SV-HUC-1 cells): 1.3 fold | Relative activity, Notch reporter (Notch pathway; SV-HUC-1 cells): 5.60 | Relative activity, Notch reporter (Notch pathway; UM-UC-3 cells): 10.16 | relative drug trigged pathway activity over the no-drug level, Notch (Notch pathway; Um-Uc-3 cells): 2.05 fold | relative drug trigged pathway activity over the no-drug level, Myc/Max (Myc/Max pathway; 5637 cells): 1.5 fold | Relative activity, Myc/Max reporter (Myc/Max pathway; 5637 cells): 16.61 | relative drug trigged pathway activity over the no-drug level, Myc/Max (Myc/Max pathway; Biu87 cells): 1.66 fold | Relative activity, Myc/Max reporter (Myc/Max pathway; Biu87 cells): 13.61 | digitalized pathway activity, Myc/Max (Myc/Max pathway; H-bc cells): 0 (null (0) if neither of the above holds) | relative drug trigged pathway activity over the no-drug level, Myc/Max (Myc/Max pathway; H-bc cells): 1.37 fold | Relative activity, Myc/Max reporter (Myc/Max pathway; H-bc cells): 17.62 | digitalized pathway activity, Myc/Max (Myc/Max pathway; SV-HUC-1 cells): 0 (null (0) if neither of the above holds) | relative drug trigged pathway activity over the no-drug level, Myc/Max (Myc/Max pathway; SV-HUC-1 cells): 1.13 fold | Relative activity, Myc/Max reporter (Myc/Max pathway; SV-HUC-1 cells): 125.00 | Relative activity, Myc/Max reporter (Myc/Max pathway; UM-UC-3 cells): 25.48 | relative drug trigged pathway activity over the no-drug level, Myc/Max (Myc/Max pathway; Um-Uc-3 cells): 0.44 fold | Correlation coefficients versus EH/Ci/Mi ([2]; 5637 cells): 0.9177 | Correlation coefficients versus EH/Ci/Mi ([2]; Biu87 cells): 0.982 | Correlation coefficients versus EH/Ci/Mi ([2]; H-bc cells): 0.9707 | Correlation coefficients versus EH/Ci/Mi ([2]; SV-HUC-1 cells): 0.9449 | Correlation coefficients versus EH/Ci/Mi ([2]; UmUc3 cells): 0.3712

COC12C(COC(N)=O)C3=C(C(=O)C(C)=C(N)C3=O)N1CC1NC12 (stereo not shown) [Mi, [6-Amino-8a-methoxy-5-methyl-4,7-dioxo-1,1a,2,4,7,8,8a,8b-octahydroazireno [2′,3′:3,4]pyrrolo[1,2-a]indol-8-yl]methyl carbamate]
Cell survival (%) (J-82): 48.38% | relative drug trigged pathway activity over the no-drug level, DNA Damage ([1]; 5637 cells): 2.87 fold | Relative activity, DNA Damage reporter ([1]; 5637 cells): 0.63 | digitalized pathway activity, DNA Damage ([1]; Biu87 cells): 0 (null (0) if neither of the above holds) | relative drug trigged pathway activity over the no-drug level, DNA Damage ([1]; Biu87 cells): 1.35 fold | Relative activity, DNA Damage reporter ([1]; Biu87 cells): 2.03 | digitalized pathway activity, DNA Damage ([1]; H-bc cells): 0 (null (0) if neither of the above holds) | relative drug trigged pathway activity over the no-drug level, DNA Damage ([1]; H-bc cells): 1.08 fold | Relative activity, DNA Damage reporter ([1]; H-bc cells): 0.73 | relative drug trigged pathway activity over the no-drug level, DNA Damage ([1]; SV-HUC-1 cells): 1.75 fold | Relative activity, DNA Damage reporter ([1]; SV-HUC-1 cells): 4.20 | digitalized pathway activity, DNA Damage ([1]; UM-UC-3 cells): 0 (null (0) if neither of the above holds) | Relative activity, DNA Damage reporter ([1]; UM-UC-3 cells): 4.77 | relative drug trigged pathway activity over the no-drug level, DNA Damage ([1]; Um-Uc-3 cells): 1.37 fold | relative drug trigged pathway activity over the no-drug level, Notch (Notch pathway; 5637 cells): 2.2 fold | Relative activity, Notch reporter (Notch pathway; 5637 cells): 2.23 | digitalized pathway activity, Notch (Notch pathway; Biu87 cells): 0 (null (0) if neither of the above holds) | relative drug trigged pathway activity over the no-drug level, Notch (Notch pathway; Biu87 cells): 1.45 fold | Relative activity, Notch reporter (Notch pathway; Biu87 cells): 6.42 | relative drug trigged pathway activity over the no-drug level, Notch (Notch pathway; H-bc cells): 0.42 fold | Relative activity, Notch reporter (Notch pathway; H-bc cells): 0.59 | digitalized pathway activity, Notch (Notch pathway; SV-HUC-1 cells): 0 (null (0) if neither of the above holds) | relative drug trigged pathway activity over the no-drug level, Notch (Notch pathway; SV-HUC-1 cells): 0.95 fold | Relative activity, Notch reporter (Notch pathway; SV-HUC-1 cells): 4.10 | Relative activity, Notch reporter (Notch pathway; UM-UC-3 cells): 7.40 | relative drug trigged pathway activity over the no-drug level, Notch (Notch pathway; Um-Uc-3 cells): 1.5 fold | relative drug trigged pathway activity over the no-drug level, Myc/Max (Myc/Max pathway; 5637 cells): 1.97 fold | Relative activity, Myc/Max reporter (Myc/Max pathway; 5637 cells): 21.77 | digitalized pathway activity, Myc/Max (Myc/Max pathway; Biu87 cells): 0 (null (0) if neither of the above holds) | relative drug trigged pathway activity over the no-drug level, Myc/Max (Myc/Max pathway; Biu87 cells): 1.16 fold | Relative activity, Myc/Max reporter (Myc/Max pathway; Biu87 cells): 9.49 | digitalized pathway activity, Myc/Max (Myc/Max pathway; H-bc cells): 0 (null (0) if neither of the above holds) | relative drug trigged pathway activity over the no-drug level, Myc/Max (Myc/Max pathway; H-bc cells): 0.75 fold | Relative activity, Myc/Max reporter (Myc/Max pathway; H-bc cells): 9.86 | digitalized pathway activity, Myc/Max (Myc/Max pathway; SV-HUC-1 cells): 0 (null (0) if neither of the above holds) | relative drug trigged pathway activity over the no-drug level, Myc/Max (Myc/Max pathway; SV-HUC-1 cells): 1.45 fold | Relative activity, Myc/Max reporter (Myc/Max pathway; SV-HUC-1 cells): 160.00 | Relative activity, Myc/Max reporter (Myc/Max pathway; UM-UC-3 cells): 22.41 | relative drug trigged pathway activity over the no-drug level, Myc/Max (Myc/Max pathway; Um-Uc-3 cells): 0.38 fold | Correlation coefficients versus EH/Ci/Mi ([2]; 5637 cells): 1 | Correlation coefficients versus EH/Ci/Mi ([2]; Biu87 cells): 0.982 | Correlation coefficients versus EH/Ci/Mi ([2]; H-bc cells): −0.2773 | Correlation coefficients versus EH/Ci/Mi ([2]; SV-HUC-1 cells): 1 | Correlation coefficients versus EH/Ci/Mi ([2]; UmUc3 cells): 0.982
